Tests used:
CT-DNA = test: UV-Vis absorption titration with CT-DNA; set-up: species or system calf; conditions: intrinsic binding constant, Tris–HCl buffer pH 7.2
Source text: DNA-binding studies are important for the rational design and construction of new and more efficient drugs targeted to DNA.[42] The binding affinity of the ligands and their organoruthenium(II) complexes with CT-DNA can be measured by using UV-Vis spectroscopy. The UV-Vis absorption spectra of the free ligands and their complexes in the absence and presence of CT DNA are given in Fig. S25 ^† and 7. […] The decrease in absorbance with increase in concentration of CT-DNA may be due to the decrease in transition probabilities as a result of partial transfer of electrons from the π orbital of the DNA base pairs to the coupled π* orbital of the coordinated Schiff base to metal due to overlapping.[43] The extent of hypochromism in the charge transfer band is an indication of the strength of intercalative interaction.[43]
In order to compare the DNA-binding affinities of the ligands and their metal complexes quantitatively, their intrinsic binding constants Kbin were obtained according to eqn (S1). ^† The binding constant value was calculated from the plot of [DNA]/(εa − εf) versus [DNA] and the data were given in Table 3 (Fig. 8). […] This may be due to the presence of different substituents in the terminal nitrogen atom of the ligands.
Supplementary Information
All the experiments involving CT-DNA binding were carried out in deionised water with tris(hydroxymethyl)-aminomethane (Tris, 5 mM) and sodium chloride (50 mM) and adjusted to pH 7.2 with hydrochloric acid at room temperature. The concentration of CT-DNA was determined by UV absorbance at 260 nm. Solutions of CT-DNA in Tris-HCl buffer gave a ratio of UV absorbance at 260 and 280 nm, A260/A280, of approximately 1.9, […]
The molar absorption coefficient, ε260, was taken as 6600 M−1 cm−1.Various concentrations of CT-DNA (2-2.5 µM) was added to the complexes (25 µM dissolved in DMSO/Tris-HCl buffer, 1 % DMSO in the final solution). While measuring the absorption spectra, an equal amount of DNA was added to both the test and reference solutions to eliminate the absorbance of DNA itself. Control experiments with DMSO were performed and no change in the spectra of CT-DNA was observed. Absorption spectra were recorded after equilibrium at 20 °C for 10 min. The intrinsic binding constant K b was determined by using following equation(1) [DNA]/[εa-εf]) = [DNA]/[ε b-εf]+1/Kb[εb-εf] (S1)
The absorption coefficients εa, εf and εb correspond to Aobsd/[DNA], the extinction coefficient for the free compound and for the compound in the fully bound form respectively. The slope and the intercept of the linear fit of the plot of [DNA]/[εa −εf] versus [DNA] give […] and 1/Kb[εb−εf] respectively. The intrinsic binding constant Kb can be obtained from the ratio of the slope to the intercept. […]

HSA = molecular target: T1, HSA (Homo sapiens, UniProt P02768); test: Three-dimensional fluorescence spectra of HSA; format: binding; conditions: HSA 10 μM + compound 10 μM, pH 7.4, 298 K
T1 construct: purchased HiMedia (Mumbai, India)
Source text: To investigate the micro environmental changes in BSA/HSA during interaction with the compounds, three dimensional fluorescence spectroscopic studies have been performed. The changes observed in 3D emission spectra and contour lines of serum albumins in the absence and presence of ligands and complexes are given in Fig. 15, 16, S34 and S35 in the ESI ^† and their corresponding characteristic parameters are provided in Table 5. The emission spectra of serum albumins such as BSA and HSA have shown three characteristic peaks – peaks A and C corresponds to first and second order Rayleigh scattering and peak B corresponds to the spectral characteristics of Trp and Tyr residues of proteins.[57] The emission intensity of Rayleigh first order scattering peak increased upon adding the compounds to serum albumins. […] The fluorescence intensity of peak ‘B’ corresponding to the tryptophan and tyrosine residues decreased with slight blue shift. From the results, it is inferred that the molecular microenvironment and conformational changes of protein occurred after interaction with the complexes and ligands.
Fig. 16 Three-dimensional fluorescence spectra of HSA in the absence and presence of ruthenium(II) complexes 1–4 (pH 7.4, 298 K, [HSA] = 10 μM, [complex] = 10 μM).
Fig. S35. Three-dimensional fluorescence spectra of HSA in the absence and presence of
ligands H 2L1-4 (pH 7.4, 298 K, [HSA] =10 µM, [Ligand] =10 µM) […]

[1] = DPPH radical scavenging assay; conditions: in methanol
Protocol: (§1) It has been reported that free radical species such as reactive oxygen species (ROS), are involved in the pathogenesis of various diseases through effects on DNA directly and by acting as a tumour promoter.[59,60] The DPPH free radical scavenging activity of the ligands and complexes were studied and quantitatively antioxidant properties were determined by using phosphomolybdate method. We knew that the inhibitory effects of the tested compounds on DPPH radical are concentration dependent and the suppression ratio increases with increasing sample concentrations (Fig. S36 ^†). […] In the phosphomolybdenum assay, the antioxidant activity is expressed as the number of equivalents of ascorbic acid (Table 6). The total antioxidant activity of the compounds is in the following order complex 3 > complex 2 > complex 1 > complex 4 > H2L^3 > H2L^2 > H2L^1 > H2L^4 > ascorbic acid > [RuHClCO(PPh3)3]. The results concluded that the metal complexes are better antioxidants than their parent ligands which may be due to the chelation of the ligands to metal ion.[35] The radical scavenging ability of the new complexes is greater than that of few other reported ruthenium complexes, containing Schiff base ligands.[9]
(§2) The DPPH radical scavenging activity of the compounds have been carried out according to the reported method.[74] In this study, various concentrations of the experimental standard ascorbic acid, [RuHCl(CO)(PPh3)3], ligands (20–100 μM) and complexes (2–10 μM) in methanol were taken. Total antioxidant activity of the compounds was determined by the phosphomolybdate method.[75]

[2] = Total antioxidant capacity, phosphomolybdate method
Protocol: as §1, §2

T1 sequence (P02768 25-609): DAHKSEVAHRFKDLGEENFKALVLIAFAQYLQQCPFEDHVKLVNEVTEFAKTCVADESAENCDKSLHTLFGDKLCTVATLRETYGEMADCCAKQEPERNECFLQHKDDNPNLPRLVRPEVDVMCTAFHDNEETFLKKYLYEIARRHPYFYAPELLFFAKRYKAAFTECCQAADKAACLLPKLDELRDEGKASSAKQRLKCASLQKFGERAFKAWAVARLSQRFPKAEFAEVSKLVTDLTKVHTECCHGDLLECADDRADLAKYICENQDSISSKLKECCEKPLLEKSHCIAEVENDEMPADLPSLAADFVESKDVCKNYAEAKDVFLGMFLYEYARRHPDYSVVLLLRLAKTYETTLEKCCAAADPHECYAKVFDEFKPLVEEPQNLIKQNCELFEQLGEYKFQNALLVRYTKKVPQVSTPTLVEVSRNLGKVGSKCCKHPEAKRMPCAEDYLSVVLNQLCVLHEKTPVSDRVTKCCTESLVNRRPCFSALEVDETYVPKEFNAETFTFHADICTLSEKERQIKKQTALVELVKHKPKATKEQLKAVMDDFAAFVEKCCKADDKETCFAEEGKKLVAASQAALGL

SMILES | Binding constant Kbin (CT-DNA) | Fluorescence peaks Intensity (F) (HSA) | Fluorescence peaks Peak position λex/λem (HSA) | Fluorescence peaks Stokes Δλ (HSA) [nm] | Rayleigh scattering peaks Intensity (F) (HSA) | IC50 [1] [µM] | Total antioxidant capacity [2]
COc1ccc2[c]3c(c(=O)oc2c1)C(C)=[N+]1N=C(N)[S][Ru-4]31([C]#[O+])([P+](c1ccccc1)(c1ccccc1)c1ccccc1)[P+](c1ccccc1)(c1ccccc1)c1ccccc1 [Complex 1, [Ru(7MAC-tsc)(CO)(PPh3)2]] | 1.2544 ± 0.304 × 10^6 M^−1 | 268.14 | 280/335 | 55 | 652.04 | 7.13 ± 0.23 | 54.13 ± 0.28 μg ascorbic acid equivalents/ml
CCNC1=N[N+]2=C(C)c3[c](c4ccc(OC)cc4oc3=O)[Ru-4]2([C]#[O+])([P+](c2ccccc2)(c2ccccc2)c2ccccc2)([P+](c2ccccc2)(c2ccccc2)c2ccccc2)[S]1 [Complex 3, [Ru(7MAC-etsc)(CO)(PPh3)2]] | 1.4428 ± 0.279 × 10^6 M^−1 | 266.21 | 280/337 | 57 | 612.58 | 5.28 ± 0.24 | 62.71 ± 0.37 μg ascorbic acid equivalents/ml
CNC1=N[N+]2=C(C)c3[c](c4ccc(OC)cc4oc3=O)[Ru-4]2([C]#[O+])([P+](c2ccccc2)(c2ccccc2)c2ccccc2)([P+](c2ccccc2)(c2ccccc2)c2ccccc2)[S]1 [Complex 2, [Ru(7MAC-mtsc)(CO)(PPh3)2]] | 1.3958 ± 0.320 × 10^6 M^−1 | 269.53 | 280/331 | 51 | 790.59 | 6.75 ± 0.18 | 58.27 ± 0.46 μg ascorbic acid equivalents/ml
COc1ccc2[c]3c(c(=O)oc2c1)C(C)=[N+]1N=C(Nc2ccccc2)[S][Ru-4]31([C]#[O+])([P+](c1ccccc1)(c1ccccc1)c1ccccc1)[P+](c1ccccc1)(c1ccccc1)c1ccccc1 [Complex 4, [Ru(7MAC-ptsc)(CO)(PPh3)2]] | 1.0636 ± 0.334 × 10^6 M^−1 | 276.12 | 280/332 | 52 | 830.46 | 7.39 ± 0.14 | 54.99 ± 0.65 μg ascorbic acid equivalents/ml
